# Laboratory results as given in paper PMC9250534, “Synthesis and direct assay of large macrocycle diversities by combinatorial late-stage modification at picomole scale” (Nature Communications, 2022).
# Numbered stars: 1 amine (or outer) side, 2 acyl side, 3 side chain; on linkers, the order of the positions; unused ones are H or OH. Bridge positions count the residues as written; N and C are the ends. Square brackets hold non-standard residues; d marks the D form. Side chains are listed from the residue outwards. Peptide text beside a SMILES is read from it. * marks the point of attachment. ξ: configuration not given here. Propanoyl(3-(4-Cl-Ph)) = O=C(CCc1ccc(Cl)cc1)*; Pyrazinoyl(5-oxo-4H) = O=C(c1c[nH]c(=O)cn1)*; Benzoyl(3,5-diOMe) = COc1cc(OC)cc(C(=O)*)c1; Isoxazole3carbonyl(5-Me) = Cc1cc(C(=O)*)no1; ξNaproxenoyl = COc1ccc2cc(C(C)C(=O)*)ccc2c1; 1,2,3Thiadiazole5CO(4-Me) = Cc1nnsc1C(=O)*; Benzoyl(3-CF3) = O=C(c1cccc(C(F)(F)F)c1)*; Tetrahydropyran4carbonyl = O=C(C1CCOCC1)*; Phenylacetyl(4-Cl) = O=C(Cc1ccc(Cl)cc1)*; Isoorotoyl = O=C(c1c[nH]c(=O)[nH]c1=O)*; Nicotinoyl(6-OMe) = COc1ccc(C(=O)*)cn1; X11 = O=C(c1cccc(S(F)(F)(F)(F)F)c1)*; 2Thenoyl(5-Cl) = O=C(c1ccc(Cl)s1)*; Benzoyl(3-Cl) = O=C(c1cccc(Cl)c1)*; Benzoyl(4-Cl) = O=C(c1ccc(Cl)cc1)*; Morpholinoacetyl = O=C(CN1CCOCC1)*; Benzoyl(3-OH) = O=C(c1cccc(O)c1)*; Phenoxyacetyl = O=C(COc1ccccc1)*; Pentanoyl(4-Me) = CC(C)CCC(=O)*; X5 = O=C(c1cc2cc(Cl)ccc2[nH]1)*; X14 = O=C(C1(c2ccccc2)CCCCC1)*; Cysteamide = C(CS[*:3])N[*:1]; X3 = O=C(Cc1c[nH]c2ccccc12)*; Me3Gly = C[N+](C)(C)CC(=O)*; X6 = O=C(c1ccc2nc[nH]c2c1)*; X12 = Cc1nc2ccccn2c1C(=O)*; Isovaleryl = CC(C)CC(=O)*; MeOSuc = COC(=O)CCC(=O)*; X1 = O=C(/C=C/c1ccccc1)*; X16 = Cc1cc(C(=O)*)ccc1O; 2Furoyl = O=C(c1ccco1)*; X17 = O=C(c1ccc(Br)o1)*; Dap = NC[CH](N)C(=O)O; X15 = O=C(c1cc[nH]n1)*; Mpa = O=C(O)CCS
# Target: MDM2 (Homo sapiens, UniProt Q00987)
# Assay: MDM2 binding screen: displacement of fluorescent p53 peptide probe FP53 (fluorescence polarization)
# Settings: 10 µM macrocycle concentration; crude acylated macrocycle (scaffold Mpa-AA1-AA2-AA3 x carboxylic acid); p53-based fluorescent peptide, human MDM2
# Procedure, shortened: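 Macrocycle reaction products at a final 10 µM were tested for displacement of a p53-based fluorescent peptide from human MDM2. Fluorescence anisotropy (ex 485/em 535 nm) was read once per macrocycle at 25 °C.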
# Chain of MDM2 (Q00987 whole entry): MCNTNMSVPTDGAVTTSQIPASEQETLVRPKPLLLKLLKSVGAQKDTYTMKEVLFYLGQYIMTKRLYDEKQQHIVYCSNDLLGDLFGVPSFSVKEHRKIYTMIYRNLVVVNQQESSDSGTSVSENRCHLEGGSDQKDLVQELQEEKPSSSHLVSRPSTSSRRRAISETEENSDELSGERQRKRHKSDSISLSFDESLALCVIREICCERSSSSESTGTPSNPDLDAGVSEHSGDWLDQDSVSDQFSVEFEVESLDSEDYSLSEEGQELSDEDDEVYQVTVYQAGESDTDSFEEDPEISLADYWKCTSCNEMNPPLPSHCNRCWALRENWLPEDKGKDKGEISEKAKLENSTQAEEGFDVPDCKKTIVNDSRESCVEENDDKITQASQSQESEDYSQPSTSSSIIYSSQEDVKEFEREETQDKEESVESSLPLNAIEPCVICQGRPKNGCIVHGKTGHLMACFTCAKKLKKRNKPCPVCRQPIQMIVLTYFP
row,Structure (SMILES),fraction fluorescent probe displaced
1,Cc1cc(C(=O)NC[C@@H]2NC(=O)[C@@H]3CCCN3C(=O)CCSSCCNC(=O)[C@H](Cc3c[nH]c4ccccc34)NC2=O)no1 [X-B1-D3-W + A3] ([Mpa]P[Dap](Isoxazole3carbonyl(5-Me))W-Cysteamide; disulfide 1-C),0.08125
2,"COc1cc(OC)cc(C(=O)NC[C@@H]2NC(=O)[C@@H]3CCCN3C(=O)CCSSCCNC(=O)[C@H](Cc3c[nH]c4ccccc34)NC2=O)c1 [X-B1-D3-W + A4] ([Mpa]P[Dap](Benzoyl(3,5-diOMe))W-Cysteamide; disulfide 1-C)",0.03512
3,O=C(NC[C@@H]1NC(=O)[C@@H]2CCCN2C(=O)CCSSCCNC(=O)[C@H](Cc2c[nH]c3ccccc23)NC1=O)c1cc[nH]n1 [X-B1-D3-W + A5] ([Mpa]P[Dap](X15)W-Cysteamide; disulfide 1-C),0.05625
4,O=C(NC[C@@H]1NC(=O)[C@@H]2CCCN2C(=O)CCSSCCNC(=O)[C@H](Cc2c[nH]c3ccccc23)NC1=O)c1ccc2nc[nH]c2c1 [X-B1-D3-W + A6] ([Mpa]P[Dap](X6)W-Cysteamide; disulfide 1-C),0.2779
5,CC(=O)NC[C@@H]1NC(=O)[C@@H]2CCCN2C(=O)CCSSCCNC(=O)[C@H](Cc2c[nH]c3ccccc23)NC1=O [X-B1-D3-W + A7] ([Mpa]P[Dap](Ac)W-Cysteamide; disulfide 1-C),0.05096
6,CC(C)CC(=O)NC[C@@H]1NC(=O)[C@@H]2CCCN2C(=O)CCSSCCNC(=O)[C@H](Cc2c[nH]c3ccccc23)NC1=O [X-B1-D3-W + A8] ([Mpa]P[Dap](Isovaleryl)W-Cysteamide; disulfide 1-C),0.1324
7,O=C(NC[C@@H]1NC(=O)[C@@H]2CCCN2C(=O)CCSSCCNC(=O)[C@H](Cc2c[nH]c3ccccc23)NC1=O)c1c[nH]c(=O)cn1 [X-B1-D3-W + A9] ([Mpa]P[Dap](Pyrazinoyl(5-oxo-4H))W-Cysteamide; disulfide 1-C),0.06006
8,COc1ccc(C(=O)NC[C@@H]2NC(=O)[C@@H]3CCCN3C(=O)CCSSCCNC(=O)[C@H](Cc3c[nH]c4ccccc34)NC2=O)cn1 [X-B1-D3-W + A10] ([Mpa]P[Dap](Nicotinoyl(6-OMe))W-Cysteamide; disulfide 1-C),0.2362
9,O=C(NC[C@@H]1NC(=O)[C@@H]2CCCN2C(=O)CCSSCCNC(=O)[C@H](Cc2c[nH]c3ccccc23)NC1=O)c1c[nH]c(=O)[nH]c1=O [X-B1-D3-W + A11] ([Mpa]P[Dap](Isoorotoyl)W-Cysteamide; disulfide 1-C),0.1
10,O=C(Cc1c[nH]c2ccccc12)NC[C@@H]1NC(=O)[C@@H]2CCCN2C(=O)CCSSCCNC(=O)[C@H](Cc2c[nH]c3ccccc23)NC1=O [X-B1-D3-W + A12] ([Mpa]P[Dap](X3)W-Cysteamide; disulfide 1-C),0.1189
11,O=C(COc1ccccc1)NC[C@@H]1NC(=O)[C@@H]2CCCN2C(=O)CCSSCCNC(=O)[C@H](Cc2c[nH]c3ccccc23)NC1=O [X-B1-D3-W + A13] ([Mpa]P[Dap](Phenoxyacetyl)W-Cysteamide; disulfide 1-C),0.1956
12,O=C(NC[C@@H]1NC(=O)[C@@H]2CCCN2C(=O)CCSSCCNC(=O)[C@H](Cc2c[nH]c3ccccc23)NC1=O)c1ccc(Cl)s1 [X-B1-D3-W + A14] ([Mpa]P[Dap](2Thenoyl(5-Cl))W-Cysteamide; disulfide 1-C),0.1687
13,"Cc1nnsc1C(=O)NC[C@@H]1NC(=O)[C@@H]2CCCN2C(=O)CCSSCCNC(=O)[C@H](Cc2c[nH]c3ccccc23)NC1=O [X-B1-D3-W + A15] ([Mpa]P[Dap](1,2,3Thiadiazole5CO(4-Me))W-Cysteamide; disulfide 1-C)",0.02409
14,O=C(NC[C@@H]1NC(=O)[C@@H]2CCCN2C(=O)CCSSCCNC(=O)[C@H](Cc2c[nH]c3ccccc23)NC1=O)c1ccco1 [X-B1-D3-W + A16] ([Mpa]P[Dap](2Furoyl)W-Cysteamide; disulfide 1-C),0.06294
15,O=C(NC[C@@H]1NC(=O)[C@@H]2CCCN2C(=O)CCSSCCNC(=O)[C@H](Cc2c[nH]c3ccccc23)NC1=O)c1cccc(Cl)c1 [X-B1-D3-W + A17] ([Mpa]P[Dap](Benzoyl(3-Cl))W-Cysteamide; disulfide 1-C),0.2671
16,O=C(NC[C@@H]1NC(=O)[C@@H]2CCCN2C(=O)CCSSCCNC(=O)[C@H](Cc2c[nH]c3ccccc23)NC1=O)c1cccc(C(F)(F)F)c1 [X-B1-D3-W + A18] ([Mpa]P[Dap](Benzoyl(3-CF3))W-Cysteamide; disulfide 1-C),-0.006211
17,O=C(NC[C@@H]1NC(=O)[C@@H]2CCCN2C(=O)CCSSCCNC(=O)[C@H](Cc2c[nH]c3ccccc23)NC1=O)c1cccc(S(F)(F)(F)(F)F)c1 [X-B1-D3-W + A19] ([Mpa]P[Dap](X11)W-Cysteamide; disulfide 1-C),0.1429
18,O=C(NC[C@@H]1NC(=O)[C@@H]2CCCN2C(=O)CCSSCCNC(=O)[C@H](Cc2c[nH]c3ccccc23)NC1=O)c1ccc(Br)o1 [X-B1-D3-W + A21] ([Mpa]P[Dap](X17)W-Cysteamide; disulfide 1-C),0.2551
19,O=C(NC[C@@H]1NC(=O)[C@@H]2CCCN2C(=O)CCSSCCNC(=O)[C@H](Cc2c[nH]c3ccccc23)NC1=O)c1ccc(Cl)cc1 [X-B1-D3-W + A25] ([Mpa]P[Dap](Benzoyl(4-Cl))W-Cysteamide; disulfide 1-C),0.2195
20,O=C(NC[C@@H]1NC(=O)[C@@H]2CCCN2C(=O)CCSSCCNC(=O)[C@H](Cc2c[nH]c3ccccc23)NC1=O)c1cccc(O)c1 [X-B1-D3-W + A27] ([Mpa]P[Dap](Benzoyl(3-OH))W-Cysteamide; disulfide 1-C),0.1229
21,Cc1cc(C(=O)NC[C@@H]2NC(=O)[C@@H]3CCCN3C(=O)CCSSCCNC(=O)[C@H](Cc3c[nH]c4ccccc34)NC2=O)ccc1O [X-B1-D3-W + A30] ([Mpa]P[Dap](X16)W-Cysteamide; disulfide 1-C),0.08563
22,O=C(NC[C@@H]1NC(=O)[C@@H]2CCCN2C(=O)CCSSCCNC(=O)[C@H](Cc2c[nH]c3ccccc23)NC1=O)c1cc2cc(Cl)ccc2[nH]1 [X-B1-D3-W + A39] ([Mpa]P[Dap](X5)W-Cysteamide; disulfide 1-C),0.06212
23,O=C(CCc1ccc(Cl)cc1)NC[C@@H]1NC(=O)[C@@H]2CCCN2C(=O)CCSSCCNC(=O)[C@H](Cc2c[nH]c3ccccc23)NC1=O [X-B1-D3-W + A42] ([Mpa]P[Dap](Propanoyl(3-(4-Cl-Ph)))W-Cysteamide; disulfide 1-C),0.05096

# The remaining lines, values ahead:
row,fraction fluorescent probe displaced,Structure (SMILES)
1,0.01122,O=C(NC[C@@H]1NC(=O)[C@@H]2CCCN2C(=O)CCSSCCNC(=O)[C@H](Cc2c[nH]c3ccccc23)NC1=O)C1CCOCC1 [X-B1-D3-W + A44] ([Mpa]P[Dap](Tetrahydropyran4carbonyl)W-Cysteamide; disulfide 1-C)
2,0.08387,O=C(Cc1ccc(Cl)cc1)NC[C@@H]1NC(=O)[C@@H]2CCCN2C(=O)CCSSCCNC(=O)[C@H](Cc2c[nH]c3ccccc23)NC1=O [X-B1-D3-W + A45] ([Mpa]P[Dap](Phenylacetyl(4-Cl))W-Cysteamide; disulfide 1-C)
3,0.006636,Cc1nc2ccccn2c1C(=O)NC[C@@H]1NC(=O)[C@@H]2CCCN2C(=O)CCSSCCNC(=O)[C@H](Cc2c[nH]c3ccccc23)NC1=O [X-B1-D3-W + A61] ([Mpa]P[Dap](X12)W-Cysteamide; disulfide 1-C)
4,0.03922,O=C(CN1CCOCC1)NC[C@@H]1NC(=O)[C@@H]2CCCN2C(=O)CCSSCCNC(=O)[C@H](Cc2c[nH]c3ccccc23)NC1=O [X-B1-D3-W + A63] ([Mpa]P[Dap](Morpholinoacetyl)W-Cysteamide; disulfide 1-C)
5,-0.02228,CC(C)CCC(=O)NC[C@@H]1NC(=O)[C@@H]2CCCN2C(=O)CCSSCCNC(=O)[C@H](Cc2c[nH]c3ccccc23)NC1=O [X-B1-D3-W + A68] ([Mpa]P[Dap](Pentanoyl(4-Me))W-Cysteamide; disulfide 1-C)
6,0.1654,CC(=O)NCC(=O)NC[C@@H]1NC(=O)[C@@H]2CCCN2C(=O)CCSSCCNC(=O)[C@H](Cc2c[nH]c3ccccc23)NC1=O [X-B1-D3-W + A83] ([Mpa]P[Dap]([Gly-Ac])W-Cysteamide; disulfide 1-C)
7,0.1099,O=C(/C=C/c1ccccc1)NC[C@@H]1NC(=O)[C@@H]2CCCN2C(=O)CCSSCCNC(=O)[C@H](Cc2c[nH]c3ccccc23)NC1=O [X-B1-D3-W + A91] ([Mpa]P[Dap](X1)W-Cysteamide; disulfide 1-C)
8,-0.1286,C[N+](C)(C)CC(=O)NC[C@@H]1NC(=O)[C@@H]2CCCN2C(=O)CCSSCCNC(=O)[C@H](Cc2c[nH]c3ccccc23)NC1=O [X-B1-D3-W + A92] ([Mpa]P[Dap](Me3Gly)W-Cysteamide; disulfide 1-C)
9,0.1339,COC(=O)CCC(=O)NC[C@@H]1NC(=O)[C@@H]2CCCN2C(=O)CCSSCCNC(=O)[C@H](Cc2c[nH]c3ccccc23)NC1=O [X-B1-D3-W + A93] ([Mpa]P[Dap](MeOSuc)W-Cysteamide; disulfide 1-C)
10,0.005277,COc1ccc2cc(C(C)C(=O)NCC3NC(=O)C4CCCN4C(=O)CCSSCCNC(=O)C(Cc4c[nH]c5ccccc45)NC3=O)ccc2c1 (centres unmarked) [X-B1-D3-W + A97] ([Mpa]P[Dap](ξNaproxenoyl)W-Cysteamide; disulfide 1-C; configuration not given here)
11,0.6683,O=C1NCCSSCCC(=O)N2CCC[C@H]2C(=O)N[C@@H](CNC(=O)C2(c3ccccc3)CCCCC2)C(=O)N[C@H]1Cc1c[nH]c2ccccc12 [X-B1-D3-W + A98] ([Mpa]P[Dap](X14)W-Cysteamide; disulfide 1-C)
12,0.1075,NC[C@@H]1NC(=O)[C@@H]2CCCN2C(=O)CCSSCCNC(=O)[C@H](Cc2c[nH]c3ccccc23)NC1=O [X-B1-D3-W + No Acid] ([Mpa]P[Dap]W-Cysteamide; disulfide 1-C)
